According to patent publication US20200048183A1, “ANTIMICROBIAL AGENTS” (THE UNIVERSITY OF WARWICK, priority 2017, published 2020):
Values after ≈ are worked out from the molar mass of the structure shown.

Test system: multi-drug resistant A. baumannii strains
Experiment: Minimum inhibitory concentration (MIC), broth microdilution method according to CLSI guidelines
Format: cell-based, Acinetobacter baumannii
Conditions: Acinetobacter baumannii, 18 h, read-out: MIC against A. baumannii
Method: MIC values for the compounds were determined using the broth microdilution method according to the official CLSI guidelines. Acinetobacter baumannii test strains were grown overnight in Mueller-Hinton (MH) broth at 37° C. In a 96-well microtiter plate, 50 μl of serial two-fold dilutions of an enacyloxin derivative in MH broth were mixed with 50 μl of bacterial suspension, diluted to a concentration of 10^6 CFU/ml in MH broth. The desired inoculum density was achieved using a 0.5 McFarland turbidity standard.

Molecule | MIC
CC/C=C/[C@@H](OC(N)=O)[C@@H](Cl)[C@H](O)CC(O)[C@@H](O)[C@H](O)[C@H](C)/C(Cl)=C/C=C/C=C(C)/C=C/C=C/C(=O)O[C@@H]1C[C@@H](C(=O)O)CC[C@@H]1O (stereo in doubt) [Compound 8, 15-hydroxy-enacyloxin IIa] | 8 µg/mL (≈ 11.4 µM)
CC/C=C/[C@@H](OC(N)=O)[C@@H](Cl)[C@H](O)CC(=O)[C@@H](O)[C@H](O)[C@H](C)/C(Cl)=C/C=C/C=C(C)/C=C/C=C/C(=O)O[C@@H]1C[C@@H](C(=O)O)C[C@@H](O)[C@@H]1O [Compound 4, 5′-hydroxy-enacyloxin IIa] | 16 µg/mL (≈ 22.3 µM)
CC/C=C/[C@@H](O)[C@@H](Cl)[C@H](O)CC(O)[C@@H](O)[C@H](O)[C@H](C)/C(Br)=C/C=C/C=C(C)/C=C/C=C/C(=O)O[C@@H]1C[C@@H](C(=O)O)CC[C@@H]1O (stereo partly drawn) [Compound 34] | 2 µg/mL (≈ 2.83 µM)
CC/C=C/C(=O)C[C@H](O)CC(=O)[C@@H](O)[C@H](O)[C@H](C)/C(Cl)=C/C=C/C=C(C)/C=C/C=C/C(=O)O[C@@H]1C[C@@H](C(=O)O)CC[C@@H]1O [Compound 10, 18-dechloro-decarbamoyl-enacyloxin IIa] | 32 µg/mL (≈ 51.4 µM)
CC/C=C/[C@@H](OC(N)=O)[C@@H](Cl)[C@H](O)CC(=O)[C@@H](O)[C@H](O)[C@H](C)/C(Cl)=C/C=C/C=C(C)/C=C/C=C/C(=O)NCC(O)CC(=O)O (stereo partly drawn) [Compound 23, enacyloxin-4-amino-3-hydroxybutyric acid conjugate] | 64 µg/mL (≈ 96.7 µM)

Same assay, conditions: Acinetobacter baumannii; multi-drug resistant A. baumannii strains; broth microdilution in MH broth, 18 h at 37° C.; read-out: MIC against A. baumannii

Molecule | MIC
CC/C=C/[C@H](C[C@H](O)CC(=O)C[C@H](O)[C@H](C)/C(Cl)=C/C=C/C=C(C)/C=C/C=C/C(=O)O[C@@H]1C[C@@H](C(=O)O)CC[C@@H]1O)OC(N)=O [Compound 6, 14-dehydroxy-18-dechloro-enacyloxin IIa] | 8 µg/mL (≈ 12.3 µM)
CC/C=C/[C@@H](OC(N)=O)[C@@H](Br)[C@H](O)CC(=O)[C@@H](O)[C@H](O)[C@H](C)/C(Br)=C/C=C/C=C(C)/C=C/C=C/C(=O)O[C@@H]1C[C@@H](C(=O)O)CC[C@@H]1O [Compound 30] | 1 µg/mL (≈ 1.26 µM)
CC/C=C/[C@@H](OC(N)=O)[C@@H](Cl)[C@H](O)CC(=O)C[C@H](O)[C@H](C)/C(Cl)=C/C=C/C=C(C)/C=C/C=C/C(=O)O[C@@H]1C[C@@H](C(=O)O)CC[C@@H]1O [Compound 1, 14-dehydroxy-enacyloxin IIa] | 2 µg/mL (≈ 2.91 µM)
CC/C=C/C1OC(O)([C@@H](O)[C@H](O)[C@H](C)/C(Cl)=C/C=C/C=C(C)/C=C/C=C/C(=O)O[C@@H]2C[C@@H](C(=O)O)CC[C@@H]2O)CC(O)C1Cl (stereo partly drawn) [Compound 3, decarbamoyl-enacyloxin IIa] | 4 µg/mL (≈ 6.06 µM)
CC/C=C/[C@@H](O)C[C@H](O)CC(O)C[C@H](O)[C@H](C)/C=C/C=C/C=C(C)/C=C/C=C/C(=O)O[C@@H]1C[C@@H](C(=O)O)CC[C@@H]1O (stereo partly drawn) [Compound 12] | > 64 µg/mL
CC/C=C/[C@@H](O)[C@@H](Cl)[C@H](O)C[C@@H](O)[C@@H](O)[C@H](O)[C@H](C)/C(Cl)=C/C=C/C=C(C)/C=C/C=C/C(=O)O[C@@H]1CC(C(=O)O)=CC[C@@H]1O [Compound 29, Δ5930/32/12-14 unsaturated enacyloxin analogue] | 1 µg/mL (≈ 1.52 µM)
CC/C=C/[C@@H](OC(N)=O)[C@@H](Cl)[C@H](O)CC(=O)[C@@H](O)[C@H](O)[C@H](C)/C(Cl)=C/C=C/C=C(C)/C=C/C=C/C(=O)O[C@@H]1CC(C(=O)O)=CC[C@@H]1O [Compound 28, Δ5912-14 unsaturated enacyloxin analogue] | 0.5 µg/mL (≈ 0.714 µM)
CC/C=C/[C@@H](OC(N)=O)[C@@H](Cl)[C@H](O)CC(=O)[C@@H](O)[C@H](O)[C@H](C)/C(Cl)=C/C=C/C=C(C)/C=C/C=C/C(=O)N[C@H]1CCC[C@H](C(=O)O)C1 [Compound 21] | 8 µg/mL (≈ 11.7 µM)
CC/C=C/[C@H](C[C@H](O)CC(=O)[C@@H](O)[C@H](O)[C@H](C)/C(Br)=C/C=C/C=C(C)/C=C/C=C/C(=O)O[C@@H]1C[C@@H](C(=O)O)CC[C@@H]1O)OC(N)=O [Compound 32] | 16 µg/mL (≈ 22.5 µM)
CC/C=C/[C@@H](OC(N)=O)[C@@H](Cl)[C@H](O)CC(=O)[C@@H](O)[C@H](O)[C@H](C)/C(Cl)=C/C=C/C=C(C)/C=C/C=C/C(=O)O[C@H]1CCC[C@H](C(=O)O)C1 [Compound 22] | 4 µg/mL (≈ 5.83 µM)
CC/C=C/[C@@H](O)[C@@H](Cl)[C@H](O)CC(O)[C@@H](O)[C@H](O)[C@H](C)/C(Cl)=C/C=C/C=C(C)/C=C/C=C/C(=O)O[C@@H]1C[C@@H](C(=O)O)CC[C@@H]1O (stereo in doubt) [Compound 9, 15-hydroxy-decarbamoyl enacyloxin IIa] | 1 µg/mL (≈ 1.51 µM)
CC/C=C/C1OC(O)(C[C@H](O)[C@H](C)/C(Cl)=C/C=C/C=C(C)/C=C/C=C/C(=O)O[C@@H]2C[C@@H](C(=O)O)CC[C@@H]2O)CC(O)C1Cl (stereo partly drawn) [Compound 5, 14-dehydroxy-18-decarbamoyl-enacyloxin IIa] | 8 µg/mL (≈ 12.4 µM)
CC/C=C/[C@@H](OC(N)=O)[C@@H](Cl)[C@H](O)CC(=O)[C@@H](O)[C@H](O)[C@H](C)/C=C/C=C/C=C(C)/C=C/C=C/C(=O)O[C@@H]1C[C@@H](C(=O)O)CC[C@@H]1O [Compound 7, 11-dechloro-enacyloxin IIa] | 4 µg/mL (≈ 5.99 µM)
CC/C=C/[C@@H](O)C[C@H](O)CC(O)[C@@H](O)[C@H](O)[C@H](C)/C(Br)=C/C=C/C=C(C)/C=C/C=C/C(=O)O[C@@H]1C[C@@H](C(=O)O)CC[C@@H]1O (stereo partly drawn) [Compound 35] | 32 µg/mL (≈ 47.6 µM)
CC/C=C/[C@@H](OC(N)=O)[C@@H](Cl)[C@H](O)CC(=O)[C@@H](O)[C@H](O)[C@H](C)/C(Cl)=C/C=C/C=C(C)/C=C/C=C/C(=O)O[C@@H]1C[C@H](C(=O)O)CC[C@H]1O [Compound 17] | 2 µg/mL (≈ 2.85 µM)
CC/C=C/[C@@H](OC(N)=O)[C@@H](Cl)[C@H](O)CC(=O)[C@@H](O)[C@H](O)[C@H](C)/C(Br)=C/C=C/C=C(C)/C=C/C=C/C(=O)O[C@@H]1C[C@@H](C(=O)O)CC[C@@H]1O [Compound 31] | 2 µg/mL (≈ 2.68 µM)
CC/C=C/[C@@H](O)C[C@H](O)CC(O)[C@@H](O)[C@H](O)[C@H](C)/C(Cl)=C/C=C/C=C(C)/C=C/C=C/C(=O)O[C@@H]1C[C@@H](C(=O)O)CC[C@@H]1O (stereo partly drawn) [Compound 11] | 8 µg/mL (≈ 12.8 µM)
CC/C=C/[C@@H](O)[C@@H](Br)[C@H](O)CC(O)[C@@H](O)[C@H](O)[C@H](C)/C(Br)=C/C=C/C=C(C)/C=C/C=C/C(=O)O[C@@H]1C[C@@H](C(=O)O)CC[C@@H]1O (stereo partly drawn) [Compound 33] | 1 µg/mL (≈ 1.33 µM)

Same assay, conditions: multi-drug resistant A. baumannii strains; broth microdilution in MH broth, 18 h at 37° C.

Molecule | MIC against A. baumannii
18-dechloro-enacyloxin IIa [Compound 2] | 4 µg/mL
